In brackets after ≈: the same amount, converted by molar mass.
Experiments:
DSY-565 C. glabrata CI = experiment: MIC determination in Candida strain DSY-565; assay type: cell-based; conditions: Nakaseomyces glabratus
Experimental: (§1) In Vitro Antifungal Activity. MIC values for various strains were determined in accordance with the standard protocol from the National Committee of Clinical Laboratory Standards but using YEPD liquid medium instead of RPMI-1640 medium (National Committee of Clinical Laboratory Standards (Reference Method for Broth Dilution Antifungal Susceptibility Testing of Yeast, M27-A2, Approved Standard-Second Edition, Volume 22, Number 15, 1995). AmB was used as a reference. The strains were cultivated overnight in 5 mL YEPD liquid medium at 30 to 37° C. (30° C. for the strain BY4741; 37° C. for the strain DSY1764) with constant shaking. The saturated cultures were diluted to an ODB600 of 0.1 (3×10P^7 cells/mL). Using 24 wells plate, each well was prepared by adding 1% (12 μL) of DMSO solution of the tested polyene macrolide with 1% (12 μL) yeast cells solution and completed with YEPD (1.176 mL). The plates were sealed with Parafilm and then incubated for 18 to 36 hours at 30 to 37° C. (18 hours at 30° C. for the strain BY4741; 36 hours at 37° C. for the strain DSY1764). The optical density was read at 600 nm using 1.5 mL cuvettes. The MIC value was defined as the drug concentration needed to inhibit growth, less than 5% compared to a drug-free culture.
(§2) MIC values of the polyene macrolides 3, 9 and 10 (Diamine-AmB and its ester and diamide derivative, respectively) in various Candida strains including an AmB-resistant strain C. albicans (DSY1764, with the genotype erg3AΔ::hisG/erg3BΔ::hisG erg11Δ::hisG/erg11Δ::hisG-URA3-hisG) were determined.

CAF2-1 C. albican wt = experiment: MIC determination in Candida strain CAF2-1; assay type: cell-based, Candida albicans; conditions: Candida albicans
Experimental: as §1, §2

[1] = tested on: DSY-654 C. albican mutant cdr1/2; experiment: MIC determination in Candida strain DSY-654; assay type: cell-based, Candida albicans; conditions: Candida albicans
Experimental: as §1, §2

human erythrocytes = experiment: Hemolytic assay (EH50); assay type: cell-based; conditions: concentration that led to 50% hemolysis of human erythrocytes; one hour at 37° C.
Experimental: Hemolytic Assay. The hemotoxicity of the polyene macrolide derivatives of the invention was determined by measuring the toxicity towards human erythrocytes (EH50 value) using an established assay (Kinsky, S. C. et al., Biochem. Biophys. Res. Comm. 1962, 9, 503). Human blood, anticoagulated with citrate or EDTA, was centrifuged (2000×g) at 4° C. for 10 minutes. The pellets were washed three times with PBS buffer (pH 7.2 with 2 g/L glucose) and then diluted to a concentration of 4% (4×10^8 cells/mL). All experiments were done in triplo and the total volume for the hemolysis tubes was 1.4 ml. The solutions were prepared by adding 1% (14 μL) of DMSO solution of the tested compound with […] of PBS buffer and completed with 750 μL of 4% erythrocytes. After one hour incubation at 37° C., the samples were centrifuged (1500×g) at 4° C. for 5 min and the absorbance of the supernatant was measured at 560 nm. The concentration that led to 50% hemolysis (EH50) was intrapolated graphically. The value for the 100% hemolysis was obtained by the treatment with 100 μM of AmB.
The toxicity of AmB (1a) and the polyene macrolides 3, 9 and 10 towards human erythrocytes was examined using the above described hemolysis assay (Table 3).

[2] = K+ efflux assay, ergosterol containing vesicles; conditions: lower concentration, 0.1 μM (FIG. 3a,c,e,g)
Experimental: FIG. 3. K^+ efflux from vesicles (LUVET100) prepared from […] (POPC) (solid line) or POPC with sterols (dotted line) for ergosterol and (broken line) for cholesterol caused by AmB (1a) (FIGS. 3a,b) and AmB diamine 3 (FIG. 3c,d), AmB diamine ester 9 (FIG. 3e,f) and AmB diamine amide 10 (FIG. 3g,h), added in DMSO to a suspension of vesicles to give final concentrations of 0.1 μM (FIG. 3a,c,e,g) and 1.0 μM (FIG. 3b,d,f,h).
K+ efflux assay. The K^+ efflux measurements were made following a previously described procedure (Zumbuehl, A. et al., Angew. Chem. Int. Ed. 2004, 43, 5181-5185; Zumbuehl, A. et al., Org. Lett. 2004, 6, 3683-3686). The appropriate liposome suspensions were prepared using POPC, cholesterol and ergosterol. Then the liposomes were sized by extrusion through two 400 nm, 200 nm, and finally 100 nm pore size membrane. The resultant “100 nm” unilamellar liposomes were dialyzed against 600 mL of 150 mM NaCl, 5 mM HEPES (pH 7.4) buffer. After, the suspension was diluted with 150 mM NaCl, 5 mM HEPES (pH 7.4) buffer to 1 mM overall lipid concentration (phospholipids+sterols). For each efflux measurement 10 mL of this liposome suspension was placed in a small beaker. Potentiometric measurements were performed with a 16-channel electrode monitor in magnetically stirred solutions at ambient temperature. The reference electrode was a Metrohm double junction Ag/AgCl reference electrode with 3 M KCl as reference electrolyte and 1 M LiOAc as bridge electrolyte. […] The resulting reading (taken after 0.5 h) was used to quantify the 100% K+-release.
As described hereinbefore differential interaction between ergosterol found in fungal membranes and cholesterol in mammalian cells is considered the basis for the selectivity of AmB (1a) as an antifungal agent. The preferential stabilization of ion channel formation in the membrane by ergosterol ultimately results in electrolyte leakage which can be conveniently measured by K^+ efflux from sterol containing vesicles. […]

Compound	MIC (DSY-565 C. glabrata CI) [µM]	MIC (CAF2-1 C. albican wt) [µM]	MIC [1] [µM]	EH50 (human erythrocytes) [µM]	K+ efflux with ergosterol containing vesicles [2]
COC(=O)[C@H]1[C@@H]2C[C@@H](O[C@@H]3O[C@H](C)[C@@H](O)[C@H](N(CCCN)CCCN)[C@@H]3O)/C=C/C=C/C=C/C=C/C=C/C=C/C=C/[C@H](C)[C@@H](O)[C@@H](C)[C@H](C)OC(=O)C[C@H](O)C[C@H](O)CC[C@@H](O)[C@H](O)C[C@H](O)C[C@](O)(C[C@@H]1O)O2 [compound 9, N,N-Di-(3-aminopropyl)-AmB Methyl Ester]	0.25 (≈ 0.263 µg/mL)	0.5 (≈ 0.526 µg/mL)	0.25 (≈ 0.263 µg/mL)	50	observed exclusively with the ergosterol containing vesicles
C[C@@H]1[C@H](O)[C@@H](C)/C=C/C=C/C=C/C=C/C=C/C=C/C=C/[C@H](O[C@@H]2O[C@H](C)[C@@H](O)[C@H](N(CCCN)CCCN)[C@@H]2O)CC2O[C@](O)(C[C@@H](O)C[C@@H](O)[C@H](O)CC[C@@H](O)C[C@@H](O)CC(=O)O[C@H]1C)C[C@H](O)[C@H]2C(=O)NCCN [compound 10, 16-(N′-(2-Aminoethyl)-carboxamide)-N,N-di-(3-aminopropyl)-AmB]	0.5 (≈ 0.54 µg/mL)	2 (≈ 2.16 µg/mL)		30	observed exclusively with the ergosterol containing vesicles

From US20090186838A1, “Amphotericin Derivatives” (Eidgenössische Technische Hochschule Zürich, priority 2006, published 2009)
